Assay results taken from ChEMBL document CHEMBL1201862, “PubChem BioAssay data set” (2004).
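Exposure lasted 48 hours, with cells grown in 96-well plates and compounds tested at five concentrations. GI50: concentration for 50% inhibition of growth.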 Active and inactive are the calls of the source. No stated cut-off is given here; in the data, active = GI50 up to about 1.1 µM and inactive = higher.

Tests used:
Assay in all cases: NCI-60 cell line screen, 48 h
DMS-114 = system: DMS-114
HOP-18 = system: HOP-18
DLD-1 = system: DLD-1
M19-MEL = system: M19-MEL
LXFL 529 = system: LXFL 529
DMS-273 = system: DMS-273
KM-20L2 = system: KM-20L2
SNB-78 = system: SNB-78
RXF 631 = system: RXF 631

CCCC(=O)C(CC)/C(CCC(=O)N(Cc1ccccc1)Cc1ccccc1)=N/NC(=O)C[N+](C)(C)C (stereo not drawn)
GI50 (DMS-114): > 100 µM (inactive)
GI50 (HOP-18): > 100 µM (inactive)
GI50 (DLD-1): > 100 µM (inactive)
GI50 (M19-MEL): > 100 µM (inactive)
GI50 (LXFL 529): > 100 µM (inactive)
GI50 (DMS-273): > 100 µM (inactive)
GI50 (KM-20L2): > 100 µM (inactive)
GI50 (SNB-78): > 100 µM (inactive)

Nc1ccc2n[se]nc2c1
GI50 (DMS-114): > 100 µM (inactive)
GI50 (HOP-18): > 100 µM (inactive)
GI50 (DLD-1): > 100 µM (inactive)
GI50 (M19-MEL): > 100 µM (inactive)
GI50 (RXF 631): > 100 µM (inactive)
GI50 (LXFL 529): > 100 µM (inactive)
GI50 (DMS-273): > 100 µM (inactive)
GI50 (KM-20L2): > 100 µM (inactive)
GI50 (SNB-78): > 100 µM (inactive)

CCCCCCCCCC[C@@H](O)[C@@H]1CC[C@H]([C@H]2CC[C@@H]([C@@H](O)CCCCCCCCCC[C@H]3CC(CC(C)=O)C(=O)O3)O2)O1 (stereo partly drawn)
GI50 (DMS-114): < 0.01 µM (active)
GI50 (DLD-1): 16.6 µM (inactive)
GI50 (M19-MEL): 13.9 µM (inactive)
GI50 (RXF 631): 8.91 µM (inactive)
GI50 (LXFL 529): 3.3 µM (inactive)
GI50 (DMS-273): 10.3 µM (inactive)
GI50 (KM-20L2): 14.6 µM (inactive)
GI50 (SNB-78): 10.9 µM (inactive)

CC(SC(=S)Nc1cccc(F)c1)C(=O)O (stereo not drawn)
GI50 (DMS-114): 15.1 µM (inactive)
GI50 (LXFL 529): 17.9 µM (inactive)
GI50 (DMS-273): 11.8 µM (inactive)
GI50 (KM-20L2): 26.4 µM (inactive)
GI50 (SNB-78): 38.9 µM (inactive)

CC/N=C(/C#N)NCC
GI50 (DMS-114): 37.6 µM (inactive)
GI50 (HOP-18): > 100 µM (inactive)
GI50 (DLD-1): > 100 µM (inactive)
GI50 (M19-MEL): > 100 µM (inactive)
GI50 (LXFL 529): > 100 µM (inactive)
GI50 (DMS-273): 44.5 µM (inactive)
GI50 (KM-20L2): > 100 µM (inactive)
GI50 (SNB-78): > 100 µM (inactive)

C=CCN1C(=O)C(=O)N(CC=C)C(=O)C1=O
GI50 (DMS-114): > 100 µM (inactive)
GI50 (DLD-1): > 100 µM (inactive)
GI50 (M19-MEL): > 100 µM (inactive)
GI50 (LXFL 529): > 100 µM (inactive)
GI50 (DMS-273): > 100 µM (inactive)
GI50 (KM-20L2): > 100 µM (inactive)
GI50 (SNB-78): > 100 µM (inactive)

COc1ccc(C(=O)Nc2ccccc2C#N)cc1
GI50 (HOP-18): > 100 µM (inactive)
GI50 (DLD-1): > 100 µM (inactive)
GI50 (M19-MEL): > 100 µM (inactive)
GI50 (DMS-273): > 100 µM (inactive)
GI50 (KM-20L2): > 100 µM (inactive)
GI50 (SNB-78): > 100 µM (inactive)

OCCSCC/C(=N\N=C(/CCSCCO)c1ccccc1)c1ccccc1
GI50 (DMS-114): > 100 µM (inactive)
GI50 (HOP-18): > 100 µM (inactive)
GI50 (DLD-1): > 100 µM (inactive)
GI50 (M19-MEL): > 100 µM (inactive)
GI50 (RXF 631): 65.8 µM (inactive)
GI50 (LXFL 529): 82 µM (inactive)
GI50 (KM-20L2): 49.9 µM (inactive)
GI50 (SNB-78): > 100 µM (inactive)

C/C(=N/NC(N)=S)C(CN(C)C)C(C1=C(O)c2ccccc2OC1)c1ccccc1 (stereo not drawn)
GI50 (DMS-114): > 100 µM (inactive)
GI50 (HOP-18): > 100 µM (inactive)
GI50 (DLD-1): > 100 µM (inactive)
GI50 (M19-MEL): > 100 µM (inactive)
GI50 (LXFL 529): > 100 µM (inactive)
GI50 (DMS-273): > 100 µM (inactive)
GI50 (KM-20L2): > 100 µM (inactive)
GI50 (SNB-78): > 100 µM (inactive)

N=c1c2ccccc2sc2nc3ccccc3n12
GI50 (DMS-114): > 100 µM (inactive)
GI50 (HOP-18): > 100 µM (inactive)
GI50 (DLD-1): > 100 µM (inactive)
GI50 (M19-MEL): > 100 µM (inactive)
GI50 (LXFL 529): > 100 µM (inactive)
GI50 (DMS-273): > 100 µM (inactive)
GI50 (SNB-78): > 100 µM (inactive)

COc1cc2ccnc([C@@H](OC(=O)c3ccccc3)c3ccc(OC)c(OC)c3OC)c2cc1OC
GI50 (DMS-114): 33.1 µM (inactive)
GI50 (HOP-18): > 100 µM (inactive)
GI50 (DLD-1): 27.9 µM (inactive)
GI50 (M19-MEL): 73.6 µM (inactive)
GI50 (RXF 631): 50 µM (inactive)
GI50 (LXFL 529): 30.8 µM (inactive)
GI50 (DMS-273): > 10 µM (inactive)
GI50 (KM-20L2): 32.3 µM (inactive)
GI50 (SNB-78): 50.5 µM (inactive)
